In this assay the test system is HBV (HepG2.2.15 cells). Description: Anti-HBV activity experiment in vitro (HepG2.2.15, HBV DNA in supernatant, qPCR). The assay is classed as cell-based. The note with it: Hepatitis B virus, HBV DNA in supernatant by qPCR, eighth day. The procedure: Compound Dilution: initial concentrations of all compounds used in the anti-HBV activity experiments in vitro were 1 μM, 3-fold diluted into 8 concentrations; initial concentrations of all compounds used in the cytotoxicity assay were 100 μM, 3-fold diluted into 8 concentrations; and the mother liquor of the compound was diluted with DMSO.
Anti-HBV Activity Experiment In Vitro: HepG2.2.15 cells (4×10^4 cells/well) were seeded in 96-well plates and cultured overnight at 37° C. in 5% CO2. The next day, fresh cultures containing compounds in different concentrations were added into the culture wells. On the fifth day, the old culture medium in the culture wells was aspirated and removed. Fresh medium containing compounds in different concentrations was added. On the eighth day, supernatants in the culture wells were collected and used to extract HBV DNA in the supernatant. qPCR assay was used to detect HBV DNA content in the HepG2.2.15 supernatant.
The data analysis and the percentage of inhibition calculation: the percentage of inhibition was calculated by using the following formula: Inhibition %=[(HBV amount in DMSO control−HBV amount in sample)/HBV amount in DMSO control]×100%.
On the technique in general: Quantitative PCR measures a nucleic acid by following its amplification.

The record followed here is patent publication US10519145B2, “Pyrazole-oxazolidinone compound for anti-hepatitis B virus” (Shanghai Zhimeng Biopharma Co., Ltd., priority 2016, dated 2019).

As to `O=C1COC(c2cn(-c3ccc(Br)cc3)nc2-c2ccc(F)cc2)N1CCc1cc2[nH]c(=O)[nH]c2cc1F` (racemic) [example 8 racemate, 2-(1-(4-bromophenyl)-3-(4-fluorophenyl)11/-pyrazol-4-yl)-3-(2-(6-fluoro-2-carbonyl-2,3-dihydro-1H-benzo[d]imidazol-5-yl)ethyl)oxazoline-4-one], the EC50 came to 35.5 nM. `O=C1COC(c2cn(-c3ccc(Br)cc3)nc2-c2ccoc2)N1CCc1ccc2[nH]c(=O)[nH]c2c1` (racemic) [example 21 racemate, 2-(1-(4-bromophenyl)-3-(furan-3-yl)-1H-pyrazol-4-yl)-3-(2-(2-oxo-2,3-dihydro-1H-benzo[d]imidazol-5-yl)ethyl)oxazolidin-4-one] came in with a concentration giving a half-maximal response (EC50) of 30.6 nM. With `Nc1ccc(CCN2C(=O)COC2c2cn(-c3ccc(Br)cc3)nc2-c2ccc(F)cc2)cc1` (stereo not shown) [example 1 intermediate] the figure was 11.8 nM; with `O=C1COC(c2cn(-c3ccc(Br)cc3)nc2-c2ccc(F)cc2)N1CCc1ccc2[nH]cnc2c1` (stereo not shown) [example 1, 3-(2-(1H-benzo[d]imidazol-5-yl)ethyl)-2-(1-(4-bromophenyl)-3-(4-fluorophenyl)-1 H-pyrazol-4-yl)oxazoline-4-one], 50.3 nM; with `O=C1COC(c2cn(-c3ccc(Br)cc3)nc2-c2ccc(F)cc2)N1CCc1ccc2[nH]nnc2c1` (stereo not shown) [example 2, 3-(2-(1H-benzo[d][1,2,3]triazol-5-yl)ethyl)-2-(1-(4-bromophenyl)-3-(4-fluoropheny 1)-1H-pyrazol-4-yl)oxazoline-4-one], 68.8 nM. In the case of `O=C1CO[C@@H](c2cn(-c3ccc(Br)cc3)nc2-c2ccc(F)cc2)N1CCc1ccc2[nH]c(=O)[nH]c2c1` [example 3 S isomer, (S)-3-(2-(2-oxo-2,3-dihydro-1H-benzo[d]imidazol-5-yl)ethyl)-2-(1-(4-bromophenyl)-3-(4-fluorophenyl)-1H-pyrazol-4-yl)-oxazolidin-4-one] it was over 1000 nM. With `N=c1[nH]c2ccc(CCN3C(=O)COC3c3cn(-c4ccc(Br)cc4)nc3-c3ccc(F)cc3)cc2[nH]1` (stereo not shown) [example 4, 3-(2-(2-amino-1H-benzo[d]imidazol-6-yl)ethyl)-2-(1-(4-bromophenyl)-3-(4-fluorophenyl)-1H-pyrazol-4-yl)oxazoline-4-one] the figure was over 1000 nM; with `O=C1COC(c2cn(-c3ccc(Br)cc3)nc2-c2ccc(F)cc2)N1CCc1ccc2[nH]c(=S)[nH]c2c1` (stereo not shown) [example 5, 2-(1-(4-bromophenyl)-3-(4-fluorophenyl)-1H-pyrazol-4-yl)-3-(2-(2,3-dihydro-2-thio-1H-benzo[d]imidazol-5-yl)ethyl)oxazoline-4-one], 45.7 nM.

As for `O=C1COC(c2cn(-c3ccc(Br)cc3)nc2-c2ccc(F)cc2)N1CCc1cc2nc[nH]c2cc1F` (stereo not shown) [example 7, 2-(1-(4-bromophenyl)-3-(4-fluorophenyl)1H-pyrazol-4-yl)-3-(2-(5-fluoro-1H-benzo[d]imidazol-6-yl)ethyl)oxazoline-4-one], the midpoint of the response, the EC50, lay at 67.5 nM. The compound `O=C1CO[C@H](c2cn(-c3ccc(Br)cc3)nc2-c2ccc(F)cc2)N1CCc1cc2[nH]c(=O)[nH]c2cc1F` [example 8 R isomer, (R)-2-(1-(4-bromophenyl)-3-(4-fluorophenyl)1H-pyrazol-4-yl)-3-(2-(6-fluoro-2-carbonyl-2,3-dihydro-1H-benzo[d]imidazol-5-yl)ethyl)oxazoline-4-one] gave a half-maximal effective concentration (EC50) of 15.5 nM. Regarding `O=C1CO[C@@H](c2cn(-c3ccc(Br)cc3)nc2-c2ccc(F)cc2)N1CCc1cc2[nH]c(=O)[nH]c2cc1F` [example 8 S isomer, (S)-2-(1-(4-bromophenyl)-3-(4-fluorophenyl)1H-pyrazol-4-yl)-3-(2-(6-fluoro-2-carbonyl-2,3-dihydro-1H-benzo[d]imidazol-5-yl)ethyl)oxazoline-4-one], the EC50 is over 1000 nM.

Compound `O=C1COC(c2cn(-c3ccc(Br)cc3)nc2-c2ccc(F)cc2)N1CCc1cc2nn[nH]c2cc1F` (stereo not shown) [example 9, 3-(2-(5-fluoro-1H-benzo[d][1,2,3]triazol-6-yl)ethyl)-2-(1-(4-bromophenyl)-3-(4-fluorophenyl)-1H-pyrazol-4-yl)oxazoline-4-one] displayed an EC50 of 234 nM. With `O=C1COC(c2cn(-c3ccc(Br)cc3)nc2-c2ccc(F)cc2)N1CCc1c(F)cc2[nH]cnc2c1F` (stereo not shown) [example 10, 2-(1-(4-bromophenyl)-3-(4-fluorophenyl)1H-pyrazol-4-yl)-3-(2-(5,7-difluoro-1H-benzo[d]imidazol-6-yl)ethyl)oxazoline-4-one] the figure was 134 nM; with `O=C1COC(c2cn(-c3ccc(Br)cc3)nc2-c2ccc(F)cc2)N1CCc1c(F)cc2[nH]c(=O)[nH]c2c1F` (stereo not shown) [example 11, 2-(1-(4-bromophenyl)-3-(4-fluorophenyl)1H-pyrazol-4-yl)-3-(2-(4,6-difluoro-2-carbonyl-2,3-dihydro-1H-benzo[d]imidazol-5-yl)ethyl)oxazoline-4-one], 101 nM. Compound `O=C1COC(c2cn(-c3ccc(Br)cc3)nc2-c2ccc(F)cc2)N1CCc1c(F)cc2[nH]nnc2c1F` (stereo not shown) [example 12, 2-(1-(4-bromophcnyl)-3-(4-fluorophenyl)-1H-pyrazol-4-yl)-3-(2-(5,7-difluoro-1H hydrogen-benzor[d][1,2,3]triazol-6-yl)ethyl)oxazoline-4-one] came in with an EC50 of 223 nM. The compound `O=C1Cc2cc(CCN3C(=O)CO[C@@H]3c3cn(-c4ccc(Br)cc4)nc3-c3ccc(F)cc3)ccc2N1` [example 13 R isomer] returned an EC50 of 14.4 nM. In the case of `O=C1Cc2cc(CCN3C(=O)CO[C@H]3c3cn(-c4ccc(Br)cc4)nc3-c3ccc(F)cc3)ccc2N1` [example 13 S isomer] it was over 1000 nM; in that of `O=C1COC(c2cn(-c3ccc(Br)cc3)nc2-c2ccc(F)cc2)N1CCc1ccc2c(c1)C(F)(F)C(=O)N2` (stereo not shown) [example 14], over 1000 nM. On to `O=C1CO[C@H](c2cn(-c3ccc(F)cc3)nc2-c2ccc(F)cc2)N1CCc1ccc2[nH]c(=O)[nH]c2c1` [example 15 R isomer, (R)-3-(2-(2-oxo-2,3-dihydro-1H-benzo[d]imidazol-5-yl)ethyl)-2-(1-(4-fluorophenyl)-3-(4-fluorophenyl)-1H-pyrazol-4-yl)-oxazolidin-4-one], for which the EC50 came out at 44.5 nM. As for `O=C1CO[C@@H](c2cn(-c3ccc(F)cc3)nc2-c2ccc(F)cc2)N1CCc1ccc2[nH]c(=O)[nH]c2c1` [example 15 S isomer, (S)-3-(2-(2-oxo-2,3-dihydro-1H-benzo[d]imidazol-5-yl)ethyl)-2-(1-(4-fluorophenyl)-3-(4-fluorophenyl)-1H-pyrazol-4-yl)-oxazolidin-4-one], the concentration giving a half-maximal response (EC50) is over 1000 nM. In the case of `O=C1COC(c2cn(-c3ccc(Br)cc3)nc2-c2ccc(F)cc2)N1CCc1ccc2[nH]c(=O)oc2c1` (stereo not shown) [example 16, 6-(2-{2-[1-(4-bromo-phenyl)-3-(4-fluoro-phenyl)-1-hydro-pyrazol-4-yl]-4-carbonyl-oxazoline-3-yl}-ethyl)-3-hydro-2-carbonyl-benzoxazole], a half-maximal effect (EC50) was put at 80.3 nM. The compound `O=C1COC(c2cn(-c3ccc(Br)cc3)nc2-c2ccc(F)cc2)N1CCc1ccc2oc(=O)[nH]c2c1` (stereo not shown) [example 17] showed an EC50 of 150 nM.

Turning to `O=C1COC(c2cn(-c3ccc(Br)cc3)nc2-c2ccc(F)cc2)N1CCc1ccc2[nH]c(=O)sc2c1` (stereo not shown) [example 18, 2-(1-(4-bromophenyl)-3-(4-fluorophenyl)-1H-pyrazol-4-yl)-3-(2-(2-carbonyl-2,3-dihydrobenzo[d]thiazol-6-yl)ethyl)-4-carbonyl-oxazoline], the EC50 is 60.4 nM. `O=C1COC(c2cn(-c3ccc(Br)cc3)nc2-c2ccc(F)cc2)N1CCc1ccc2sc(=O)[nH]c2c1` (stereo not shown) [example 19, 2-(1-(4-bromophenyl)-3-(4-fluorophenyl)-1H-pyrazol-4-yl)-3-(2-(2-oxo-2,3-dihydrobenzo[d]thiazol-5-yl)ethyl)oxazoline-4-one] showed an EC50 of 162 nM. With `O=C1COC(c2cn(-c3ccc(Br)cc3)nc2-c2ccsc2)N1CCc1ccc2[nH]c(=O)[nH]c2c1` (stereo not shown) [example 20, 2-(1-(4-bromophenyl)-3-(thiophene-3-yl)-1H-pyrazol-4-yl)-3-(2-(2-oxo-2,3-dihydro-1H-benzo[d]imidazol-5-yl)ethyl)oxazolidin-4-one], it took 20.9 nM to reach a half-maximal effect (EC50). Take `O=C1CO[C@H](c2cn(-c3ccc(Br)cc3)nc2-c2ccoc2)N1CCc1ccc2[nH]c(=O)[nH]c2c1` [example 21 R isomer, (R)-2-(1-(4-bromophenyl)-3-(furan-3-yl)-1H-pyrazol-4-yl)-3-(2-(2-oxo-2,3-dihydro-1H-benzo[d]imidazol-5-yl)ethyl)oxazolidin-4-one]: a half-maximal effect (EC50) was put at 11 nM. For the compound `O=C1CO[C@@H](c2cn(-c3ccc(Br)cc3)nc2-c2ccoc2)N1CCc1ccc2[nH]c(=O)[nH]c2c1` [example 21 S isomer, (S)-2-(1-(4-bromophenyl)-3-(furan-3-yl)-1H-pyrazol-4-yl)-3-(2-(2-oxo-2,3-dihydro-1H-benzo[d]imidazol-5-yl)ethyl)oxazolidin-4-one], the EC50 was over 1000 nM.

The compound `O=C1COC(c2cn(-c3ccc(Br)cc3)nc2-c2ccco2)N1CCc1ccc2[nH]c(=O)[nH]c2c1` (stereo not shown) [example 22, 2-(1-(4-bromophenyl)-3-(furan-2-yl)-1H-pyrazol-4-yl)-3-(2-(2-oxo-2,3-dihydro-1H-benzo[d]imidazol-5-yl)ethyl)oxazolidin-4-one] yielded an EC50 of 85.3 nM.

Broadly, the EC50 is the concentration giving half of the maximal effect. Read a high EC50 as weaker potency.
